# Laboratory results reported in ChEMBL document CHEMBL1201862, “PubChem BioAssay data set” (2004).
#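 Where inhibition never reached the appropriate level, the endpoint shown equals the highest concentration tested. Otherwise, values were interpolated linearly from a five-concentration, 48-hour dose response in 96-well plates. GI50 is the concentration that inhibits growth by half.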 Activity calls are given as the source filed them. No stated cut-off is given here; in the data, active = GI50 up to about 1.1 µM and inactive = higher.
# Columns and labels:
# Assay in all cases: growth of human tumour cells (NCI), 48 h
# [1] = system: HL-60
# [2] = system: COLO 205
# [3] = system: MOLT-4
# [4] = system: NCI-H522
# [5] = system: TK-10
# [6] = system: SK-MEL-28
# [7] = system: OVCAR-8
# [8] = system: A549
# [9] = system: CAKI-1
# [10] = system: HOP-62
# [11] = system: NCI-H460
# [12] = system: SK-MEL-5
# [13] = system: SN12C
# [14] = system: NCI-H226
# [15] = system: A498
# [16] = system: OVCAR-3
Structure (SMILES),GI50 [1],GI50 [2],GI50 [3],GI50 [4],GI50 [5],GI50 [6],GI50 [7],GI50 [8],GI50 [9],GI50 [10],GI50 [11],GI50 [12],GI50 [13],GI50 [14],GI50 [15],GI50 [16]
COc1ccc(-c2cc(O)c3cc4c(cc3n2)OCO4)c(OC)c1,20 µM (inactive),46.2 µM (inactive),30.2 µM (inactive),46.9 µM (inactive),> 100 µM (inactive),32.9 µM (inactive),96.6 µM (inactive),41.8 µM (inactive),> 100 µM (inactive),73.1 µM (inactive),40.2 µM (inactive),26.5 µM (inactive),59.6 µM (inactive),,,
COc1cc2c(c(OC)c1OC)-c1ccc(SC)c(=O)cc1[C@@H](NC(=O)c1ccc(F)cc1)CC2,< 0.01 µM (active),0.0206 µM (active),0.0601 µM (active),< 0.01 µM (active),0.0515 µM (active),15.2 µM (inactive),0.053 µM (active),,,0.0621 µM (active),0.0344 µM (active),,0.0384 µM (active),0.0381 µM (active),0.0399 µM (active),0.0183 µM (active)
CC(C)=CC1CCc2ccccc2N1S(=O)(=O)c1ccc(C)cc1 (stereo not given),0.272 µM (active),1.06 µM (active),1.18 µM (inactive),1.52 µM (inactive),2.81 µM (inactive),1.96 µM (inactive),2.72 µM (inactive),1.22 µM (inactive),,2.57 µM (inactive),1.36 µM (inactive),0.589 µM (active),2.99 µM (inactive),1.77 µM (inactive),1.61 µM (inactive),0.865 µM (active)
N/N=C1/C(=O)N(c2ccc(Cl)cc2)C(=O)C(=O)C1c1nc2ccccc2s1 (stereo not given),> 100 µM (inactive),> 100 µM (inactive),> 100 µM (inactive),> 100 µM (inactive),> 100 µM (inactive),> 100 µM (inactive),> 100 µM (inactive),> 100 µM (inactive),> 68.2 µM (inactive),> 100 µM (inactive),> 100 µM (inactive),> 100 µM (inactive),> 100 µM (inactive),,> 100 µM (inactive),> 100 µM (inactive)
COC(=O)CCc1cccnc1/C=N/O,> 100 µM (inactive),> 100 µM (inactive),> 100 µM (inactive),> 100 µM (inactive),55.7 µM (inactive),> 100 µM (inactive),> 100 µM (inactive),> 100 µM (inactive),> 100 µM (inactive),> 100 µM (inactive),27.4 µM (inactive),> 100 µM (inactive),> 100 µM (inactive),> 100 µM (inactive),> 100 µM (inactive),> 100 µM (inactive)
Cc1ccc(/C=C2\CCCC\C2=N\O)cc1,12.9 µM (inactive),81.5 µM (inactive),> 10 µM (inactive),,> 100 µM (inactive),> 100 µM (inactive),59.3 µM (inactive),71.8 µM (inactive),56.6 µM (inactive),> 100 µM (inactive),54 µM (inactive),35.1 µM (inactive),47 µM (inactive),,37.7 µM (inactive),> 100 µM (inactive)
C=CCCCCC1CCC2CCC(CCCCC=C)N12 (stereo not given),14.5 µM (inactive),16.2 µM (inactive),15 µM (inactive),14.2 µM (inactive),16.6 µM (inactive),17.7 µM (inactive),17.7 µM (inactive),16.1 µM (inactive),29.1 µM (inactive),16 µM (inactive),12.4 µM (inactive),13.9 µM (inactive),15.7 µM (inactive),18.2 µM (inactive),,15.1 µM (inactive)
O=C(Nc1ccccc1)O/N=C1/CCCC/C1=C\c1ccccc1,,14.5 µM (inactive),5.53 µM (inactive),16.4 µM (inactive),17.9 µM (inactive),17.6 µM (inactive),18.1 µM (inactive),,15.7 µM (inactive),21.9 µM (inactive),15.1 µM (inactive),13 µM (inactive),16.3 µM (inactive),24.9 µM (inactive),23.2 µM (inactive),15.2 µM (inactive)
Cc1c(C(=O)/C=C/c2ccccc2Cl)[n+]([O-])c2ccccc2[n+]1[O-],12.3 µM (inactive),15.5 µM (inactive),16 µM (inactive),11.2 µM (inactive),,16.6 µM (inactive),13.3 µM (inactive),15.9 µM (inactive),3.24 µM (inactive),19.9 µM (inactive),10.3 µM (inactive),18 µM (inactive),15.1 µM (inactive),15.3 µM (inactive),14 µM (inactive),15.9 µM (inactive)
